Reference: patent publication US20260092061A1, “COMPOUNDS FOR TARGETED PROTEIN DEGRADATION” (Amphista Therapeutics Limited, priority 2022, published 2026)

What was measured:
BRD9 [1] = target: T1, BRD9 (Homo sapiens, UniProt Q9H8M2); test: BRD9 degradation, HiBiT-BRD9 KI HEK293 (LgBiT) cells, NanoGlo Lytic Endpoint assay (Assay Protocol 1); format: cell-based; conditions: Assay protocol 1, BRD9 degradation; for DC50: read-out: DC50; for Dmax: HEK293, read-out: Dmax
T1 sequence (Q9H8M2 1-597): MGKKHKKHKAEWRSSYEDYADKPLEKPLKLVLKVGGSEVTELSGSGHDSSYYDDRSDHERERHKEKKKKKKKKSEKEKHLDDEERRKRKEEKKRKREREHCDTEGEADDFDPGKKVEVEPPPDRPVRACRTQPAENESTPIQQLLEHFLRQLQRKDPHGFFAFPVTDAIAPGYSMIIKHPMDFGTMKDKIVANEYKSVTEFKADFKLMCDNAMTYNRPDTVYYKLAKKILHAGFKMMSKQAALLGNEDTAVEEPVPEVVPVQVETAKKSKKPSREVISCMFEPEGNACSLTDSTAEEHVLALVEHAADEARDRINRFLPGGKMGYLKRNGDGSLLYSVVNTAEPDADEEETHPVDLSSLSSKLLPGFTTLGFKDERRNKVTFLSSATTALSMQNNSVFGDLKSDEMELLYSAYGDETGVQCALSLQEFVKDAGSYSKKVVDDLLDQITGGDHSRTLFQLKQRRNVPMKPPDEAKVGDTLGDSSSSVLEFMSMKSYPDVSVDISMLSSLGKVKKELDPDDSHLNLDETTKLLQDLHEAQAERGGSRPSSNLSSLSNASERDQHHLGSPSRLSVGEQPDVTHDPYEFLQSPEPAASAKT
How it was run: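 HiBiT-tagged BRD9 knock-in HEK293 (LgBiT) cells exposed to compounds for 6 h at 37 °C, 5% CO2. Residual BRD9 measured by HiBiT lytic luminescence. % BRD9 remaining normalised to DMSO-treated cells (high) and no-cell wells (low).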

BRD9 [2] = target: T1, BRD9; test: Degradation of BRD9 (IF), immunofluorescence in MV4-11 cells, 24 hours (Assay Protocol 2); format: cell-based; parameters: A suspension of MV4-11 cells (ATCC CRL-9591) was prepared; host or cells: MV4-11; conditions: BRD9 degradation; for DC50: Assay protocol 2, read-out: DC50; for Dmax: MV4-11, Assay protocol 2, read-out: Dmax
How it was run: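 % BRD9 remaining, scaled between DMSO (high) and 100 nM CFT-8634 (low) control wells, derives from mean Alexa 647 contrast in central nuclei by high-content imaging. MV4-11 cells had 24 h compound exposure at 37° C. before PFA fixation, Triton permeabilisation and anti-BRD9 E4Q3F immunostaining.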

| SMILES | DC50 (BRD9 [1]) [µM] | Dmax (BRD9 [1]) [%] | DC50 (BRD9 [2]) [µM] | Dmax (BRD9 [2]) [%] |
| --- | --- | --- | --- | --- |
| COc1cc(-c2cn(C)c(=O)c(C)c2C)cc(OC)c1CN1CCN(Cc2cccc3c2CCN(C(=O)/C(C#N)=C/C24CC(C2)C4)C3C)CC1 (mixture of isomers) [Compound B45, (E/Z)-3-(bicyclo[1.1.1]pentan-1-yl)-2-(5-((4-(2,6-dimethoxy-4-(1,4,5-trimethyl-6-oxo-1,6-dihydropyridin-3-yl)benzyl)piperazin-1-yl)methyl)-1-methyl-1,2,3,4-tetrahydroisoquinoline-2-carbonyl)acrylonitrile] | < 0.00125 | > 75 | < 0.00125 | > 75 |
| COc1cc(-c2cn(C)c(=O)c(C)c2C)cc(OC)c1C(=O)N1CCN(Cc2cccc(C3CCCN3C(=O)/C(C#N)=C/C(C)(C)C)c2)CC1 (mixture of isomers) [Compound B46, (E/Z)-2-(2-(3-((4-(2,6-dimethoxy-4-(1,4,5-trimethyl-6-oxo-1,6-dihydropyridin-3-yl)benzoyl)piperazin-1-yl)methyl)phenyl)pyrrolidine-1-carbonyl)-4,4-dimethylpent-2-enenitrile] | 0.01 to 0.025 | > 75 | 0.00125 to 0.01 | > 75 |
| COc1cc(-c2cn(C)c(=O)c(C)c2C)cc(OC)c1CN1CCN(Cc2cccc3c2CCN(C(=O)/C(C#N)=C/c2ncccc2C(F)(F)F)C3C)CC1 (mixture of isomers) [Compound B49, (E/Z)-2-(5-((4-(2,6-dimethoxy-4-(1,4,5-trimethyl-6-oxo-1,6-dihydropyridin-3-yl)benzyl)piperazin-1-yl)methyl)-1-methyl-1,2,3,4-tetrahydroisoquinoline-2-carbonyl)-3-(3-(trifluoromethyl)pyridin-2-yl)acrylonitrile] | < 0.00125 | 40 to 70 | 0.01 to 0.025 | 40 to 70 |
| COc1cccnc1/C=C(\C#N)C(=O)N1CCc2c(CN3CCN(Cc4c(OC)cc(-c5cn(C)c(=O)c(C)c5C)cc4OC)CC3)cccc2C1C (mixture of isomers) [Compound B51, (E/Z)-2-(5-((4-(2,6-dimethoxy-4-(1,4,5-trimethyl-6-oxo-1,6-dihydropyridin-3-yl)benzyl)piperazin-1-yl)methyl)-1-methyl-1,2,3,4-tetrahydroisoquinoline-2-carbonyl)-3-(3-methoxypyridin-2-yl)acrylonitrile] | 0.00125 to 0.01 | 40 to 70 | – | 25 to 40 |
| COc1ccnc(/C=C(\C#N)C(=O)N2CCc3c(CN4CCN(Cc5c(OC)cc(-c6cn(C)c(=O)c(C)c6C)cc5OC)CC4)cccc3C2C)c1 (mixture of isomers) [Compound B52, (E/Z)-2-(5-((4-(2,6-dimethoxy-4-(1,4,5-trimethyl-6-oxo-1,6-dihydropyridin-3-yl)benzyl)piperazin-1-yl)methyl)-1-methyl-1,2,3,4-tetrahydroisoquinoline-2-carbonyl)-3-(4-methoxypyridin-2-yl)acrylonitrile] | < 0.00125 | 70 to 75 | 0.025 to 1 | 40 to 70 |
| COc1ccc(/C=C(\C#N)C(=O)N2CCc3c(CN4CCN(Cc5c(OC)cc(-c6cn(C)c(=O)c(C)c6C)cc5OC)CC4)cccc3C2C)nc1 (mixture of isomers) [Compound B53, (E/Z)-2-(5-((4-(2,6-dimethoxy-4-(1,4,5-trimethyl-6-oxo-1,6-dihydropyridin-3-yl)benzyl)piperazin-1-yl)methyl)-1-methyl-1,2,3,4-tetrahydroisoquinoline-2-carbonyl)-3-(5-methoxypyridin-2-yl)acrylonitrile] | 0.00125 to 0.01 | 40 to 70 | – | 40 to 70 |
| COc1cc(-c2cn(C)c(=O)c(C)c2C)cc(OC)c1CN1CCN(C(=O)c2ccc(C3CCCN3C(=O)/C(C#N)=C/C(C)(C)C)cc2)CC1 (mixture of isomers) [Compound B55, (E/Z)-2-(2-(4-(4-(2,6-dimethoxy-4-(1,4,5-trimethyl-6-oxo-1,6-dihydropyridin-3-yl)benzyl)piperazine-1-carbonyl)phenyl)pyrrolidine-1-carbonyl)-4,4-dimethylpent-2-enenitrile] | 0.01 to 0.025 | > 75 | 0.025 to 1 | > 75 |
| COc1cc(-c2cn(C)c(=O)c(C)c2C)cc(OC)c1CN1CC(Oc2ccc3c(c2)CCN(C(=O)/C(C#N)=C/c2cccc(Br)n2)C3C)C1 (mixture of isomers) [Compound B57, (E/Z)-3-(6-bromopyridin-2-yl)-2-(6-((1-(2,6-dimethoxy-4-(1,4,5-trimethyl-6-oxo-1,6-dihydropyridin-3-yl)benzyl)azetidin-3-yl)oxy)-1-methyl-1,2,3,4-tetrahydroisoquinoline-2-carbonyl)acrylonitrile] | < 0.00125 | 40 to 70 | < 0.00125 | 40 to 70 |
| COc1cc(-c2cn(C)c(=O)c(C)c2C)cc(OC)c1CN1CC2(C1)CN(c1cccc(C3CCCN3C(=O)/C(C#N)=C/C(C)(C)C)c1)C2 (mixture of isomers) [Compound B58, (E/Z)-2-(2-(3-(6-(2,6-dimethoxy-4-(1,4,5-trimethyl-6-oxo-1,6-dihydropyridin-3-yl)benzyl)-2,6-diazaspiro[3.3]heptan-2-yl)phenyl)pyrrolidine-1-carbonyl)-4,4-dimethylpent-2-enenitrile] | < 0.00125 | 40 to 70 | < 0.00125 | 40 to 70 |
| COc1cc(-c2cn(C)c(=O)c(C)c2C)cc(OC)c1CN(C)Cc1cccc(C2CCCN2C(=O)/C(C#N)=C/C(C)(C)C)c1 (mixture of isomers) [Compound B78, (E/Z)-2-(2-(3-(((2,6-dimethoxy-4-(1,4,5-trimethyl-6-oxo-1,6-dihydropyridin-3-ylbenzyl)methyl)amino)methyl)phenyl)pyrrolidine-1-carbonyl)-4,4-dimethylpent-2-enenitrile] | 0.00125 to 0.01 | > 75 | 0.01 to 0.025 | > 75 |

Continued, values first:

| DC50 (BRD9 [1]) [µM] | Dmax (BRD9 [1]) [%] | DC50 (BRD9 [2]) [µM] | Dmax (BRD9 [2]) [%] | SMILES |
| --- | --- | --- | --- | --- |
| < 0.00125 | > 75 | < 0.00125 | > 75 | COc1cc(-c2cn(C)c(=O)c(C)c2C)cc(OC)c1CN1CCN(Cc2cccc3c2CCN(C(=O)/C(C#N)=C/C(C)(C)C)C3C)C2(CC2)C1 (mixture of isomers) [Compound B47, (E/Z)-2-(5-((7-(2,6-dimethoxy-4-(1,4,5-trimethyl-6-oxo-1,6-dihydropyridin-3-yl)benzyl)-4,7-diazaspiro[2.5]octan-4-yl)methyl)-1-methyl-1,2,3,4-tetrahydroisoquinoline-2-carbonyl)-4,4-dimethylpent-2-enenitrile] |
| < 0.00125 | 70 to 75 | 0.01 to 0.025 | > 75 | COc1cc(-c2cn(C)c(=O)c(C)c2C)cc(OC)c1CN1CCN(Cc2cccc3c2CCN(C(=O)/C(C#N)=C/c2cc(C(F)(F)F)ccn2)C3C)CC1 (mixture of isomers) [Compound B50, (E/Z)-2-(5-((4-(2,6-dimethoxy-4-(1,4,5-trimethyl-6-oxo-1,6-dihydropyridin-3-yl)benzyl)piperazin-1-yl)methyl)-1-methyl-1,2,3,4-tetrahydroisoquinoline-2-carbonyl)-3-(4-(trifluoromethyl)pyridin-2-yl)acrylonitrile] |
| < 0.00125 | > 75 | < 0.00125 | 70 to 75 | COc1cc(-c2cn(C)c(=O)c(C)c2C)cc(OC)c1CN1CCC(Oc2cccc(C3CCCN3C(=O)/C(C#N)=C/C(C)(C)C)c2)C1 (mixture of isomers) [Compound B54, (E/Z)-2-(2-(3-(((S)-1-(2,6-dimethoxy-4-(1,4,5-trimethyl-6-oxo-1,6-dihydropyridin-3-yl)benzyl)pyrrolidin-3-yl)oxy)phenyl)pyrrolidine-1-carbonyl)-4,4-dimethylpent-2-enenitrile] |
| – | 40 to 70 | – | 40 to 70 | COc1cc(-c2cn(C)c(=O)c3ccsc23)cc(OC)c1CN1CCN(Cc2cccc3c2CCN(C(=O)/C(C#N)=C/C(C)(C)C)C3C)CC1 (mixture of isomers) [Compound B59, (E/Z)-2-(5-((4-(2,6-dimethoxy-4-(5-methyl-4-oxo-4,5-dihydrothieno[3,2-c]pyridin-7-yl)benzyl)piperazin-1-yl)methyl)-1-methyl-1,2,3,4-tetrahydroisoquinoline-2-carbonyl)-4,4-dimethypent-2-enenitrile] |
